Experiment: xn = mol fraction of the nth substance listed

CCOC(=O)c1ccccc1 + CC(C)O
viscosity [mPa·s], 101 kPa
Conditions	x1 = 0.056	x1 = 0.1177	x1 = 0.1862	x1 = 0.2624	x1 = 0.348	x1 = 0.4446	x1 = 0.546	x1 = 0.681	x1 = 0.8277
303.15 K	1.659	1.664	1.671	1.678	1.686	1.695	1.706	1.719	1.733
308.15 K	1.501	1.508	1.515	1.525	1.532	1.541	1.551	1.563	1.577
313.15 K	1.327	1.337	1.345	1.356	1.367	1.38	1.394	1.409	1.426
318.15 K	1.192	1.203	1.213	1.225	1.239	1.254	1.27	1.291	1.313
323.15 K	1.074	1.085	1.099	1.114	1.13	1.15	1.167	1.194	1.222

CCCCCN + Cc1ccccc1
303.15 K, 101 kPa
Conditions	viscosity [mPa·s]
x2 = 0.1128	0.556
x2 = 0.2313	0.5323
x2 = 0.3808	0.5104
x2 = 0.4933	0.5008
x2 = 0.5377	0.4969
x2 = 0.6473	0.4932
x2 = 0.7388	0.4938
x2 = 0.8447	0.4984
x2 = 0.9229	0.5071

O=[N+]([O-])[O-].[K+] + O
viscosity [mPa·s]
Conditions	x1 = 0.0009	x1 = 0.0018	x1 = 0.00893	x1 = 0.0177	x1 = 0.02	x1 = 0.02631	x1 = 0.03478	x1 = 0.0431	x1 = 0.05127
293.15 K, 101.3 kPa	0.999	0.9967	0.9784	0.9678	–	–	–	0.9855	1.002
298.15 K, 101.3 kPa	–	0.887	0.875	–	–	–	0.8802	0.8927	0.9095
303.15 K, 101.3 kPa	0.7964	0.7957	0.7884	0.7866	–	0.791	0.8004	0.8138	0.8319
308.15 K, 101.3 kPa	0.7193	0.7184	0.7156	0.7174	–	0.7235	0.7334	–	0.7636
318.15 K, 101.3 kPa	0.5964	0.5967	0.5993	0.6038	–	0.6128	–	0.6376	0.6543
323.15 K, 101 kPa	–	–	–	–	0.565	–	–	–	–

CC1CCCCC1 + C1CCCCC1
303.15 K, 101 kPa
Conditions	viscosity [mPa·s]
x2 = 0.0996	0.6425
x2 = 0.1991	0.6465
x2 = 0.2949	0.6574
x2 = 0.3948	0.6697
x2 = 0.497	0.6849
x2 = 0.6005	0.7041
x2 = 0.699	0.7258
x2 = 0.7978	0.7519
x2 = 0.8955	0.7854

CCCCCl + CC(C)(C)O
viscosity [mPa·s], 101 kPa
Conditions	x1 = 0.1052	x1 = 0.2087	x1 = 0.315	x1 = 0.4159	x1 = 0.5172	x1 = 0.6059	x1 = 0.7101	x1 = 0.8039	x1 = 0.8976
298.15 K	2.188	1.359	0.991	0.7867	0.6596	0.582	–	0.4746	0.4434
313.15 K	1.279	0.9194	0.7181	0.5981	0.5189	–	0.4243	0.3963	0.377

CC1CCCCC1 + CCCCCC
viscosity [mPa·s], 101 kPa
Conditions	293.15 K	298.15 K	303.15 K	308.15 K
x1 = 0.0401	0.3176	0.3005	0.2736	–
x1 = 0.1041	–	–	0.3003	–
x1 = 0.1042	–	0.334	0.318	0.301
x1 = 0.2002	0.3482	0.3336	0.3072	–
x1 = 0.202	–	–	0.3216	–
x1 = 0.2026	–	0.359	0.341	0.323
x1 = 0.2772	0.3681	0.3511	0.3256	–
x1 = 0.3005	–	–	0.3476	–
x1 = 0.301	–	0.373	0.354	0.335
x1 = 0.3562	0.3915	0.3713	0.3477	–
x1 = 0.3972	–	–	0.375	–
x1 = 0.4018	–	0.401	0.378	0.359
x1 = 0.4196	0.4131	0.3895	0.3654	–
x1 = 0.5015	–	–	0.4074	–
x1 = 0.5026	–	0.433	0.41	0.387
x1 = 0.5574	–	–	0.4286	–
x1 = 0.5875	0.4812	0.4512	0.4227	–
x1 = 0.6024	–	0.473	0.446	0.42
x1 = 0.6173	–	–	0.4495	–
x1 = 0.6796	0.5261	0.49	0.46	–
x1 = 0.7021	–	0.517	0.487	0.457
x1 = 0.7645	0.5729	0.5323	0.5001	–
x1 = 0.8006	–	–	0.5303	–
x1 = 0.8016	–	0.573	0.539	0.504
x1 = 0.8397	0.6187	0.5725	0.5388	–
x1 = 0.9002	–	–	0.5837	–
x1 = 0.9011	–	0.624	0.585	0.545
x1 = 0.9198	0.6688	0.6221	0.5865	–

CC1CCCCC1 + CCCCCCCC
viscosity [mPa·s], 101 kPa
Conditions	293.15 K	298.15 K	303.15 K	308.15 K
x1 = 0.0401	0.5414	0.5075	0.482	–
x1 = 0.1044	–	0.524	0.496	0.468
x1 = 0.1998	0.5583	0.5193	0.4944	–
x1 = 0.2066	–	0.535	0.504	0.474
x1 = 0.2801	0.5689	0.5283	0.5018	–
x1 = 0.3045	–	0.543	0.512	0.481
x1 = 0.3514	0.5781	0.5367	0.5067	–
x1 = 0.4068	–	0.557	0.525	0.493
x1 = 0.4282	0.5879	0.5477	0.5161	–
x1 = 0.5043	–	0.57	0.537	0.504
x1 = 0.6015	–	0.586	0.552	0.518
x1 = 0.6051	0.6189	0.5761	0.5389	–
x1 = 0.6759	0.634	0.5912	0.5529	–
x1 = 0.7015	–	0.603	0.567	0.532
x1 = 0.7572	0.6552	0.6123	0.5712	–
x1 = 0.8023	–	0.624	0.587	0.55
x1 = 0.8382	0.6791	0.6323	0.5918	–
x1 = 0.8984	–	0.646	0.607	0.568
x1 = 0.9197	0.7023	0.6539	0.6124	–
x2 = 0.0861	–	0.655	–	–
x2 = 0.1756	–	0.633	–	–
x2 = 0.3246	–	0.602	–	–
x2 = 0.4674	–	0.577	–	–
x2 = 0.6154	–	0.559	–	–
x2 = 0.7785	–	0.526	–	–
x2 = 0.7797	–	0.535	–	–

CC(C)O + CCCCO
298.15 K, 101 kPa
Conditions	viscosity [mPa·s]
x2 = 0.1026	2.057
x2 = 0.2012	2.105
x2 = 0.302	2.145
x2 = 0.4045	2.207
x2 = 0.5086	2.269
x2 = 0.6002	2.327
x2 = 0.734	2.402
x2 = 0.7964	2.437
x2 = 0.9021	2.506

CCOC(=O)c1ccccc1 + CCCO
viscosity [mPa·s], 101.3 kPa
Conditions	x1 = 0.0548	x1 = 0.1155	x1 = 0.1829	x1 = 0.2582	x1 = 0.3431	x1 = 0.4393	x1 = 0.5493	x1 = 0.6763	x1 = 0.8246
303 K	1.619	1.637	1.645	1.657	–	1.688	1.703	1.72	1.734
308 K	1.471	1.486	1.499	1.51	1.525	1.537	1.552	1.568	1.579
313 K	1.326	1.337	1.351	1.364	1.372	1.386	1.403	1.414	1.432
318 K	1.235	1.247	1.257	1.272	1.28	1.291	1.302	1.314	1.327
323 K	1.175	1.188	1.194	1.205	1.21	1.219	1.227	1.235	1.244

CCn1cc[n+](C)c1.N#C[S-] + CCOS(=O)(=O)[O-].CC[n+]1ccn(C)c1
100 kPa
Conditions	viscosity [mPa·s]
298.15 K, x2 = 0.0495	24.95
323.15 K, x2 = 0.571	25.65

CCCNCCC + CCCCCCCCCCO
viscosity [mPa·s], 101.33 kPa
Conditions	x1 = 0.1006	x1 = 0.1963	x1 = 0.2905	x1 = 0.3847	x1 = 0.5117	x1 = 0.618	x1 = 0.7197	x1 = 0.8159	x1 = 0.895
303.15 K	7.53	6.262	5.075	3.99	2.748	1.943	1.364	0.9795	0.7427
313.15 K	5.817	4.775	3.828	2.993	2.07	1.486	1.076	0.7925	0.6095

From the CheMixHub viscosity set
